Laboratory results from publication PMC8151276, “An Integrated Approach toward NanoBRET Tracers for Analysis of GPCR Ligand Engagement” (Molecules, 2021).

Biological target: T1, TACR1 (Homo sapiens, UniProt P25103)
T1 construct: purchased Promega (in-house HiBiT-GPCR construct library, NanoBRET)
Assay: NanoBRET screen HiBiT-TACR1 in HEK293
Assay type: binding
Protocol: Each tracer candidate was screened across the entire library of HiBiT-GPCR constructs using NanoBRET as the detection modality. As depicted in Figure 4A, the specificity of interactions was evaluated through decrease in BRET due to competitive displacement of a bound tracer by excess parental compound. Each tracer was analyzed for binding to each HiBiT-GPCR fusion in the absence and in the presence of competing parental compound. Briefly, HEK293 cells were transfected with HiBiT-GPCR constructs diluted into promoterless DNA to reduce expression and maximize translocation to the cell surface. Each tracer candidate was then screened at concentrations of 1 μM and 0.1 μM across cells expressing these fusions. Cells were treated for 1.5 h with tracer either alone or in the presence of 20 μM competing parental compound (i.e., control). BRET was measured upon addition of purified LgBiT and subsequent complementation with HiBiT genetically fused to a GPCR. The specificity of interactions was assessed through a decrease in BRET signal due to competitive displacement of the bound tracer. To further gauge the robustness of these interactions, the fold response over the control (i.e., BRETtracer/BRETcontrol) was calculated. We chose a 1.5-fold response, which translates to ≥7-fold signal over noise as the minimal threshold required to score an interaction as positive.
HiBiT-GPCR DNA constructs were diluted in 10 mM Tris pH 8 to a final concentration of 0.01 μg/μL, arrayed in 96-well plates and stored at −20 °C. For transfection, HEK293 cells were suspended in Opti-MEM (without phenol red) supplemented with 2% fetal bovine serum (Seradigm) and 100 units/mL penicillin–streptomycin (Gibco) at a final concentration of 220,000 cells/mL and dispensed into white 96-well plates at 90 μL/well. Subsequent transfections and screens were carried using an Agilent Bravo Automated Liquid Handling Platform. First, the 96-well HiBiT DNA arrays were diluted 25-fold in Opti-MEM (without serum or phenol red) to a final concentration of 0.0004 μg/μL and 20 μL of the diluted DNAs were transferred into new 96-well plates. Next, promoterless carrier DNA (1 μg/μL) was diluted 25-fold (0.04 μg/μL) and then dispensed into the diluted arrays at 20 μL/well. Following brief mixing, Viafect transfection reagent (Promega) diluted 16-fold into Opti-MEM was dispensed into the plates at 40 μL/well. After mixing by pipetting, plates were incubated for 10 min on the pipetting station deck. The DNA-transfection reagent complexes were then added to plates containing cells. To facilitate the screen, 10 μL of DNA-transfection reagent complexes were added in duplicates to the top 4 and bottom 4 rows, resulting in two identical 48-well arrays per plate. Plates with transfected cells were incubated for 18–20 h at 37 °C/5% CO2. A screen of each tracer across the entire library using two different concentrations requires duplicate plates of transfected cells. Depending on the number of tracers being screened, transfections can be scaled up using the same ratios. The next day, for each tracer, four 20× screening solutions in tracer dilution buffer (Promega) were prepared: two duplicates at final concentration of 20 μM and two duplicates at a final concentration of 2 μM. […] The four resulting solutions were diluted 4-fold in Opti-MEM without serum or phenol red to generate 5× solutions (5 µM and 0.5 µM tracer +/− 100 μM competing compound). To screen the library, a BioTek MultiFlo FX liquid dispenser was used to dispense 22.5 µL of tracer solution to the top 4 rows and 22.5 µL tracer + competing compound solution to the 4 bottom rows. Plates were briefly mixed on an orbital shaker and incubated for 1.5 h at room temperature. […] Plates were briefly mixed on an orbital shaker and incubated for 15 min to allow complementation.

T1 sequence (P25103 whole entry): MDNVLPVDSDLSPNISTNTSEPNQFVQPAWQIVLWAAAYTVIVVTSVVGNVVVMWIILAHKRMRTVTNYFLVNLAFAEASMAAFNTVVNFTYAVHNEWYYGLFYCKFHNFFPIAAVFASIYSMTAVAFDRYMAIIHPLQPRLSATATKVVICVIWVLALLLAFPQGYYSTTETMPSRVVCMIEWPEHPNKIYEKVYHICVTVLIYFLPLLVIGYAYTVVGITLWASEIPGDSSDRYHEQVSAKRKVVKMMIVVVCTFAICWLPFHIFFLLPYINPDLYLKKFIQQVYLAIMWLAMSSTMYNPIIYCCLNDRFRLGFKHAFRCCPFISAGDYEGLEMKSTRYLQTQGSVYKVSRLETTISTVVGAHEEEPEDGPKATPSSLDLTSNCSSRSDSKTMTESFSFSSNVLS

| Compound | NanoBRET Fold Response (TACR1, tracer 0.1μM) | NanoBRET Fold Response (TACR1, tracer 1μM) | other results |
| --- | --- | --- | --- |
| O=C(CCOCCOCCOCCOCCNC(=O)CCc1ccc2n1[B-](F)(F)[N+]1=C(c3ccc[nH]3)C=CC1=C2)NCCCN1CCN(C2=Nc3ccccc3Oc3ccc(Cl)cc32)CC1 [Loxapine-a-2-NB590] | 1.06 | 1.12 | – |
| CN(C)CCC=C1c2ccccc2CCc2ccc(C(=O)NCCNC(=O)CCOCCOCCOCCOCCNC(=O)CCc3ccc4n3[B-](F)(F)[N+]3=C(c5ccc[nH]5)C=CC3=C4)cc21 [Amitriptyline-a-2-NB590] | – | – | NanoBRET Fold Response (tracer at 0.1μM): 1.17; NanoBRET Fold Response (tracer at 1μM): 1.18 |
| COc1ccccc1N1CCN(CCCCN2C(=O)c3ccc(CNC(=O)CCOCCOCCOCCOCCNC(=O)CCc4ccc5n4[B-](F)(F)[N+]4=C(c6ccc[nH]6)C=CC4=C5)cc3C2=O)CC1 [NAN-190-2-NB590] | 0.98 | – | – |
| O=C(CCc1ccc2n1[B-](F)(F)[N+]1=C(c3ccc[nH]3)C=CC1=C2)NCc1ccc(C(=O)NCCOCCOCCNCC(O)COc2cccc3ccccc23)cc1 (stereo not shown) [Propranolol-3-NB590] | – | – | NanoBRET Fold Response (TACR1, 0.1μM): 0.99; NanoBRET Fold Response (TACR1, 1μM): 1.00 |
| COc1ccccc1N1CCN(CCCCN2C(=O)c3ccc(CNC(=O)CCOCCNC(=O)c4ccc(CNC(=O)CCc5ccc6n5[B-](F)(F)[N+]5=C(c7ccc[nH]7)C=CC5=C6)cc4)cc3C2=O)CC1 [NAN-190-3-NB590] | 1.13 | 1.11 | – |
| O=C(CCc1ccc2n1[B-](F)(F)[N+]1=C(c3ccc[nH]3)C=CC1=C2)NCc1ccc(C(=O)NCCOCCC(=O)N[C@@H]2CC[C@@]3(O)[C@H]4Cc5ccc(O)c6c5[C@@]3(CCN4CC3CC3)[C@H]2O6)cc1 [Naltrexone-3-NB590] | 1.06 | 0.90 | – |
| CCOC(=O)c1cc(C#N)c(N2CCC(C(=O)NS(=O)(=O)Cc3ccccc3/C=C/C(=O)NCCNC(=O)CCc3ccc4n3[B-](F)(F)[N+]3=C(c5ccc[nH]5)C=CC3=C4)CC2)nc1C [AZD1283-1-NB590] | – | – | NanoBRET Fold Response (TACR1, 0.1μM): 1.06; NanoBRET Fold Response (TACR1, 1μM): 1.09 |
| COc1ccc2[nH]c(-c3ccc(CNC(=O)CCOCCOCCOCCOCCNC(=O)CCc4ccc5n4[B-](F)(F)[N+]4=C(c6ccc[nH]6)C=CC4=C5)cc3)c(CCNC(C)=O)c2n1 [AzomelatoninICO9-2-NB590] | – | – | NanoBRET Fold Response (0.1μM tracer): 1.08; NanoBRET Fold Response (1μM tracer): 0.85 |
| CC(C)N(CC[C@H](c1ccccc1)c1cc(CCNC(=O)CCOCCOCCOCCOCCNC(=O)CCc2ccc3n2[B-](F)(F)[N+]2=C(c4ccc[nH]4)C=CC2=C3)ccc1O)C(C)C [Tolterodine-2-NB590] | 1.16 | 1.01 | – |
| CN1CCN(C2=Nc3cc(Cl)ccc3N(CC(=O)NCCOCCOCCOCCOCCNC(=O)CCc3ccc4n3[B-](F)(F)[N+]3=C(c5ccc[nH]5)C=CC3=C4)c3ccccc32)CC1 [Clozapine-c-2-NB590] | – | – | NanoBRET Fold Response (TACR1, 0.1μM tracer): 0.99; NanoBRET Fold Response (TACR1, 1μM tracer): 0.96 |
| N#CN=C(NCCCOc1cccc(CN2CCCCC2)c1)NCCNC(=O)CCOCCOCCOCCOCCNC(=O)CCc1ccc2n1[B-](F)(F)[N+]1=C(c3ccc[nH]3)C=CC1=C2 [Aminopotentidine-2-NB590] | 1.01 | 1.02 | – |
| COc1ccc2c(n1)c(CCNC(C)=O)cn2CCNC(=O)CCc1ccc2n1[B-](F)(F)[N+]1=C(c3ccc[nH]3)C=CC1=C2 [Azamelatonin-1-NB590] | – | – | NanoBRET Fold Response (0.1μM tracer): 0.98; NanoBRET Fold Response (1μM tracer): 0.89 |
| CC(C)N(CC[C@H](c1ccccc1)c1cc(CCNC(=O)c2ccc(CNC(=O)CCc3ccc4n3[B-](F)(F)[N+]3=C(c5ccc[nH]5)C=CC3=C4)cc2)ccc1O)C(C)C [Tolterodine-BZ-NB590] | 0.93 | 1.01 | – |
| O=C(CCc1ccc2n1[B-](F)(F)[N+]1=C(c3ccc[nH]3)C=CC1=C2)NCCOCCOCCNC(=O)OCCOCCN1CCN(C2=Nc3ccccc3Sc3ccccc32)CC1 [Quetiapine-a-2-NB590] | 0.97 | 0.83 | – |
| Cc1cc2c(s1)Nc1ccccc1N=C2N1CCN(CCCNC(=O)CCOCCOCCOCCOCCNC(=O)CCc2ccc3n2[B-](F)(F)[N+]2=C(c4ccc[nH]4)C=CC2=C3)CC1 [Olanzapine-a-2-NB590] | 1.04 | 0.92 | – |
| CN(C)CCC=C1c2ccccc2CCc2ccc(C(=O)NCCNC(=O)CCOCCOCCOCCOCCNC(=O)CCc3ccc4n3[B-](F)(F)[N+]3=C(c5ccc[nH]5)C=CC3=C4)cc21 [Amitriptyline-b-2-NB590] | – | – | NanoBRET Fold Response (tracer at 0.1μM, listed as amitriptyline-b-2-NB590): 1.45; NanoBRET Fold Response (tracer at 1μM, listed as amitriptyline-b-2-NB590): 1.07 |
| O=C(CCOCCOCCOCCOCCNC(=O)CCc1ccc2n1[B-](F)(F)[N+]1=C(c3ccc[nH]3)C=CC1=C2)NCCCN1CCN(C2=Nc3cc(Cl)ccc3Nc3ccccc32)CC1 [Clozapine-a-2-NB590] | – | – | NanoBRET Fold Response (TACR1, 0.1μM tracer): 1.15; NanoBRET Fold Response (TACR1, 1μM tracer): 1.01 |
| CN1CCN(C2=Nc3cc(Cl)ccc3Nc3ccc(CNC(=O)CCOCCOCCOCCOCCNC(=O)CCc4ccc5n4[B-](F)(F)[N+]4=C(c6ccc[nH]6)C=CC4=C5)cc32)CC1 [Clozapine-b-2-NB590] | – | – | NanoBRET Fold Response (TACR1, 0.1μM tracer): 1.06; NanoBRET Fold Response (TACR1, 1μM tracer): 1.08 |
| Cc1nc2n(c(=O)c1CCN1CCC(c3noc4cc(F)ccc34)CC1)CCCC2OC(=O)NCCOCCOCCOCCOCCNC(=O)CCc1ccc2n1[B-](F)(F)[N+]1=C(c3ccc[nH]3)C=CC1=C2 (stereo not shown) [Risperidone-2-NB590] | 1.10 | 0.95 | – |
